In PubChem BioAssay (NCI) one finds GI50 and TGI data, which are given here for six compounds.

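Following 48 hours of exposure in 96-well plates, responses at five concentrations were used to interpolate endpoints linearly. At the GI50, growth is halved. Definition used: TGI = concentration required for complete inhibition of growth.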

Test in all cases: growth of human tumour cells (NCI), 48 h
Experiment [1] has as its system T-47D breast.
The test system of experiment [2] is 786-0 renal.
For experiment [3], the system named is OVCAR-3 ovarian.
The subject of experiment [4] is RPMI-8226 leukemia.
Experiment [5] deals with HCT-116 colon.
Experiment [6] deals with OVCAR-5 ovarian.
The test system of experiment [7] is M14 melanoma.
Experiment [8] concerns A549 NSCLC.
Experiment [9] deals with MOLT-4 leukemia.
Experiment [10] has as its system A498 renal.

Consider `CNC1=CC(=O)C2=C(C1=O)C1C3=C(C(=O)C(Br)=C(OC)C3=O)C2c2ccccc21` (centres undefined), for which the GI50 in [1] was 1.44 µM; in [2], 1.38 µM; in experiment [3], 1.5 µM; in experiment [4], 2.27 µM; in experiment [5], 1.87 µM; in experiment [6], 2.15 µM. Besides, the GI50 is 6.76 µM in experiment [7], 20.6 µM in experiment [8] and 1.12 µM in [9]. For the same compound, the TGI in [1] is 15.7 µM; in [2] it was 3.5 µM; in experiment [3], 3.1 µM; in experiment [4], greater than 50 µM; in [5], 5.7 µM; in experiment [6] it was 8.63 µM. Besides, the values for the TGI in [7], in experiment [8] and in experiment [9] were 17.1 µM, greater than 50 µM and greater than 50 µM, respectively.

As for `C=C(CN(C)Cc1ccccc1)c1ccc(C(=O)Nc2ccccc2N)cc1`, the GI50 in [1] is 0.611 µM; in experiment [2], 5.21 µM; in [3], 3.56 µM; in experiment [4], 1.46 µM; in experiment [5], 8.6 µM; in experiment [6], 5.46 µM. Besides, the GI50 in [7] is 13.4 µM; in [8], 5.19 µM. In addition, the TGI is 4.75 µM in experiment [1]; 27.3 µM in experiment [2]; 16 µM in experiment [3]; greater than 50 µM in experiment [4]; 21.9 µM in experiment [5]; 21.4 µM in [6]. Besides, the TGI in experiment [7] was 41.2 µM; in experiment [8] it was 19.1 µM.

Turning to `CCCC(=O)O[C@]1(C)CC[C@@H]2[C@H]3[C@@H]1[C@@H]1C/C(C)=C\CC[C@](C)(OC(=O)[C@@H]2C)[C@H]3O1`, the GI50 is greater than 100 µM in [1]; 72.6 µM in experiment [2]; 30.3 µM in experiment [3]; 15.9 µM in experiment [4]; 18.8 µM in [5]; 38.2 µM in [6]. Moreover, the GI50 was 32.5 µM in experiment [7], 40.1 µM in experiment [8] and 14.7 µM in [9]. For the same compound, the TGI in experiment [1] was greater than 100 µM; in [2], greater than 100 µM; in experiment [3], greater than 100 µM; in experiment [4], 37.6 µM; in experiment [5], 38.2 µM; in [6], greater than 100 µM. The TGI in [7] was greater than 100 µM; in [8], greater than 100 µM; in [9], 30.5 µM.

Consider `O=C(NCCNC(=O)c1ccc(F)cc1)Nc1ccc(-n2cc(-c3ccncc3)c(-c3ccc(Cl)c(O)c3)n2)cc1`, for which the GI50 in [1] was 0.884 µM; in [2], 0.997 µM; in [3] it was 0.326 µM; in [10], 0.336 µM; in experiment [5] it was 0.338 µM; in experiment [6], 1.03 µM. Further, the GI50 in [7] was 0.288 µM; in experiment [8], 1.75 µM; in experiment [9] it was 0.356 µM. For the same compound, the TGI in experiment [1] worked out at 16 µM; in experiment [2] it was 5.77 µM; in experiment [3], 1.2 µM; in experiment [10] it was 2.83 µM; in [5] it was 1.56 µM; in experiment [6], 9.82 µM. In addition, the TGI in experiment [7] was determined as 1.25 µM; in experiment [8], 9.38 µM; in [9], 3.54 µM.

As for `O=c1oc2c(cc1-c1ccccc1)C(O)Oc1ccccc1-2` (centres undefined), the GI50 in experiment [1] is 4.41 µM; in experiment [2], 11.6 µM; in experiment [3], 2.6 µM; in [10], 7.98 µM; in experiment [5] it was 3.9 µM; in experiment [6], 31.3 µM. Moreover, the GI50 is 3.32 µM in experiment [7] and 7.84 µM in experiment [8]. Further, the TGI in [1] was 22.3 µM; in [2], greater than 100 µM; in [3], greater than 100 µM; in experiment [10], 44.7 µM; in experiment [5], 34.6 µM; in experiment [6], greater than 100 µM. Further, the TGI stood at 14.5 µM in experiment [7] and 95.8 µM in [8].

Take `COc1cc2oc(-c3cccc(C(=O)Nc4ccc(C)cc4)c3)cc(=O)c2c(OC)c1OC`: the GI50 in experiment [1] is 1.94 µM; in [2], 2.06 µM; in experiment [3], 5.39 µM; in experiment [4], 0.374 µM; in [5], 2.21 µM; in [6] it was 2.17 µM. The GI50 in experiment [7] was 0.503 µM; in [8], 3.86 µM; in experiment [9], 5.8 µM. The TGI is greater than 100 µM in experiment [1]; 6.11 µM in experiment [2]; greater than 100 µM in experiment [3]; 3.54 µM in [4]; 21.8 µM in [5]; greater than 100 µM in experiment [6]. Besides, the TGI is 2.23 µM in [7], greater than 100 µM in experiment [8] and greater than 100 µM in [9].
